Laboratory results reported in ChEMBL document CHEMBL3227930, “Some 11-substituted tetrahydrocannabinols. Synthesis and comparison with the potent cannabinoid metabolites 11-hydroxytetrahydrocannabinols” (1979).
Active and inactive are the calls of the source. The rule behind the calls is not given here.

Columns and labels:
Canis familiaris [1] = test: Induction of overt behavior in dog at 2 mg/kg, iv; type: functional, organism-based; design: dose 2 mg/kg; conditions: Canis lupus familiaris
Canis familiaris [2] = test: Induction of overt behavior in dog at 0.20 mg/kg, iv; type: functional, organism-based; design: dose 0.2 mg/kg; conditions: Canis lupus familiaris
Canis familiaris [3] = test: Induction of overt behavior in dog at 3 mg/kg, iv; type: functional, organism-based; design: dose 3 mg/kg; conditions: Canis lupus familiaris
Canis familiaris [4] = test: Induction of overt behavior in dog at 1 mg/kg, iv; type: functional, organism-based; design: dose 1 mg/kg; conditions: Canis lupus familiaris
Mus musculus [5] = test: Analgesic activity in mouse at 50 mg/kg, sc by hot-plate method; type: functional, organism-based; design: dose 50 mg/kg
Canis familiaris [6] = test: Induction of overt behavior in dog at 0.40 mg/kg, iv; type: functional, organism-based; design: dose 0.4 mg/kg; conditions: Canis lupus familiaris
Canis familiaris [7] = test: Induction of overt behavior in dog at 0.80 mg/kg, iv; type: functional, organism-based; design: dose 0.8 mg/kg; conditions: Canis lupus familiaris
Mus musculus [8] = test: Analgesic activity in sc dosed mouse by hot-plate method; type: functional
Canis familiaris [9] = test: Induction of overt behavior in dog at 4 mg/kg, iv; type: functional, organism-based; design: dose 4 mg/kg; conditions: Canis lupus familiaris
Mus musculus [10] = test: Analgesic activity in mouse at 20 mg/kg, sc by hot-plate method; type: functional, organism-based; design: dose 20 mg/kg
Canis familiaris [11] = test: Induction of overt behavior in dog at 0.50 mg/kg, iv; type: functional, organism-based; design: dose 0.5 mg/kg; conditions: Canis lupus familiaris
Canis familiaris [12] = test: Induction of overt behavior in dog at 0.10 mg/kg, iv; type: functional, organism-based; design: dose 0.1 mg/kg; conditions: Canis lupus familiaris
Canis familiaris [13] = test: Induction of overt behavior in dog at 0.01 mg/kg, iv; type: functional, organism-based; design: dose 0.01 mg/kg; conditions: Canis lupus familiaris
Canis familiaris [14] = test: Induction of overt behavior in dog at 0.05 mg/kg, iv; type: functional, organism-based; design: dose 0.05 mg/kg; conditions: Canis lupus familiaris

With `CCCCCc1cc(O)c2c(c1)OC(C)(C)[C@@H]1CC=C(CC)CC21` (mixture of isomers) the Activity (Canis familiaris [1]) was “Active”, the Activity (Canis familiaris [2]) was “inactive” and the Activity (Canis familiaris [3]) was “Active”. The Activity (Canis familiaris [4]) was “Active”, the Activity (Mus musculus [5]) was “inactive” and the Activity (Canis familiaris [6]) was “inactive”. The Activity (Canis familiaris [7]) was “Active”.

`COc1ccc2c3c1O[C@H]1[C@@H](O)C=C[C@H]4[C@@H](C2)N(C)CC[C@@]341.Cl` was tested, and the ED50 (Mus musculus [8]) was 7.5 mg/kg.

With `CCCCCc1cc(O)c2c(c1)OC(C)(C)[C@@H]1CC=C(COC)C[C@@H]21` the Activity (Canis familiaris [1]) was “Active”, the Activity (Canis familiaris [9]) was “Active” and the ED50 (Mus musculus [8]) was 8.2 mg/kg.

`CCCCCc1cc(O)c2c(c1)OC(C)(C)[C@@H]1CC=C(CN)C[C@@H]21` was tested, and the Activity (Canis familiaris [1]) was “Active”, the Activity (Mus musculus [10]) was “inactive” and the Activity (Canis familiaris [11]) was “inactive”. The Activity (Canis familiaris [4]) was “inactive”.

For `CCCCCc1cc(O)c2c(c1)OC(C)(C)[C@@H]1CCC(CO)=C[C@@H]21`, the Activity (Canis familiaris [12]) was “Active”, the Activity (Canis familiaris [13]) was “Active” and the Activity (Canis familiaris [14]) was “Active”. The ED50 (Mus musculus [8]) was 1.9 mg/kg.

`CCCCCc1cc(O)c2c(c1)OC(C)(C)[C@@H]1CC/C(=N/O)C[C@@H]21` was tested, and the Activity (Mus musculus [10]) was “inactive”.

For `CCCCCc1cc(O)c2c(c1)OC(C)(C)[C@@H]1CC=C(C)C[C@@H]21` [DELTA-8-TETRAHYDROCANNABINOL], the Activity (Canis familiaris [12]) was “inactive”, the Activity (Canis familiaris [2]) was “inactive” and the Activity (Canis familiaris [6]) was “Active”. For the same molecule, the ED50 (Mus musculus [8]) was 8.8 mg/kg.

`CCCCCc1cc(O)c2c(c1)OC(C)(C)[C@@H]1CC=C(CNC(C)=O)C[C@@H]21` was tested, and the Activity (Mus musculus [10]) was “inactive”.

`CN1CC[C@]23c4c5ccc(O)c4O[C@H]2[C@@H](O)C=C[C@H]3[C@H]1C5.Cl` [MORPHINE HYDROCHLORIDE] was tested, and the ED50 (Mus musculus [8]) was 1.2 mg/kg.
